This passage reports T/C results from PubChem BioAssay AID330 (DTP/NCI, 2004).

Several values for one entry are separate records, joined by “and”; a condition that tells them apart may be missing. Equal values may be shown once. Inconclusive results and toxic doses are left out.

The assay deals with P388 leukemia ip, CD2F1 mice, survival T/C. The experiment in a line: NCI In Vivo Anticancer Drug Screen. Data for tumor model P388 Leukemia (intraperitoneal) in CD2F1 (CDF1) mice. Particulars: endpoint: median survival time, higher = longer survival. In short, it runs like this: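 Mice carrying the transplanted tumor received test compound or vehicle. Survival was recorded in each group, and the value is the treated-group measurement divided by that of the vehicle-treated control group.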

[1] abbreviates: dose: 12.5 mg/kg/injection, schedule: Q01DX009 (ip), vehicle: saline.
Setting [2] is: dose: 25.0 mg/kg/injection, schedule: Q01DX009 (ip), vehicle: saline.
Setting [3] is: dose: 50.0 mg/kg/injection, schedule: Q01DX009 (ip), vehicle: saline.
The mark [4] stands for this setting: dose: 6.25 mg/kg/injection, schedule: Q01DX009 (ip), vehicle: saline with Tween-80.
[5] abbreviates: dose: 12.5 mg/kg/injection, schedule: Q01DX009 (ip), vehicle: saline with Tween-80.
The mark [6] stands for this setting: dose: 25.0 mg/kg/injection, schedule: Q01DX009 (ip), vehicle: saline with Tween-80.
Where [7] appears, read: dose: 50.0 mg/kg/injection, schedule: Q01DX009 (ip), vehicle: saline with Tween-80.
The mark [8] stands for this setting: dose: 200.0 mg/kg/injection, schedule: Q01DX009 (ip), vehicle: saline with Tween-80.
Where [9] appears, read: dose: 100.0 mg/kg/injection, schedule: Q01DX009 (ip), vehicle: saline with Tween-80.
Setting [10] is: dose: 50.0 mg/kg/injection, schedule: Q01DX005 (ip), vehicle: saline with Tween-80.
The mark [11] stands for this setting: dose: 100.0 mg/kg/injection, schedule: Q01DX005 (ip), vehicle: saline with Tween-80.

For `CCCCNP(=O)(N1CC1C)N1CC1C` (configuration not stated), the T/C (dose: 8.25 mg/kg/injection, schedule: Q01DX009 (ip), vehicle: saline) was 112 % of control; the T/C under setting [1] was 120 % of control; the T/C under setting [2] was 109 % of control; the T/C under setting [3] was 86 % of control.

With `O=C(Nc1cccc2cccnc12)C1=C(Nc2cccc3cccnc23)CCC1`, the T/C reads like this: under setting [4], 107 % of control; under setting [5], 100 % of control; under setting [6], 98 % of control; under setting [7], 92 % of control; under setting [8], 98 % of control.

Regarding `CNC(=O)OCc1c(COC(=O)NC)c(C)n(-c2ccc(Cl)c(Cl)c2)c1C`, the T/C was 154 % of control and 160 % of control under setting [1]; 165 % of control under setting [2].

For `CC1=C2CC(C)(C)/C=C\C(=O)/C(C)=C\C3=CC(C)(O)CC3(O2)C1=O` (configuration not stated), the T/C is 102 % of control (dose: 0.92 mg/kg/injection, schedule: Q01DX009 (ip), vehicle: saline with Tween-80); 109 % of control (dose: 1.25 mg/kg/injection, schedule: Q01DX009 (ip), vehicle: Klucel (hydroxypropylcellulose) (HPC)); 98 % of control (dose: 1.84 mg/kg/injection, schedule: Q01DX009 (ip), vehicle: saline with Tween-80); 120 % of control (dose: 2.5 mg/kg/injection, schedule: Q01DX009 (ip), vehicle: Klucel (hydroxypropylcellulose) (HPC)); 116 % of control (dose: 3.67 mg/kg/injection, schedule: Q01DX009 (ip), vehicle: saline with Tween-80); 118 % of control (dose: 5.0 mg/kg/injection, schedule: Q01DX009 (ip), vehicle: Klucel (hydroxypropylcellulose) (HPC)). The T/C is 118 % of control (dose: 7.34 mg/kg/injection, schedule: Q01DX009 (ip), vehicle: saline with Tween-80) and 120 % of control (dose: 10.0 mg/kg/injection, schedule: Q01DX009 (ip), vehicle: Klucel (hydroxypropylcellulose) (HPC)).

Consider `CCCCC[N+]1(CC)CCCCC1`, for which the T/C by setting is: (dose: 3.12 mg/kg/injection, schedule: Q01DX009 (ip), vehicle: saline) 104 % of control; (dose: 6.25 mg/kg/injection, schedule: Q01DX009 (ip), vehicle: saline) 106 % of control; under setting [1], 104 % of control.

For the compound `NC(=S)N/N=C/c1cn(-c2ccc([N+](=O)[O-])cc2)cn1`, the T/C by setting is: (dose: 25.0 mg/kg/injection, schedule: Q04DX003 (ip), vehicle: Klucel (hydroxypropylcellulose) (HPC)) 86 % of control; (dose: 50.0 mg/kg/injection, schedule: Q04DX003 (ip), vehicle: Klucel (hydroxypropylcellulose) (HPC)) 86 % of control; (dose: 100.0 mg/kg/injection, schedule: Q04DX003 (ip), vehicle: Klucel (hydroxypropylcellulose) (HPC)) 94 % of control.

Take `CCOC(=O)C(=CN(C)c1ccc(C)cc1)C(=O)OCC`: the T/C was 100 % of control under setting [7], 103 % of control under setting [9] and 95 % of control under setting [8].

`CC(=O)c1c(OCC(O)CNC(C)C)ccc2c(C)cc(=O)oc12` (configuration not stated): the T/C was 100 % of control under setting [10] and 92 % of control under setting [11].

On to `CC1NC(=O)C(C)NC1=O` (configuration not stated), for which the T/C runs as follows: (dose: 50.0 mg/kg/injection, schedule: Q01DX009 (ip), vehicle: Klucel (hydroxypropylcellulose) (HPC)) 93 % of control; (dose: 100.0 mg/kg/injection, schedule: Q01DX009 (ip), vehicle: Klucel (hydroxypropylcellulose) (HPC)) 96 % of control; (dose: 200.0 mg/kg/injection, schedule: Q01DX009 (ip), vehicle: Klucel (hydroxypropylcellulose) (HPC)) 94 % of control.

`COC1=C(C)C(=O)c2[nH]ccc2C1=O`: the T/C (dose: 100.0 mg/kg/injection, schedule: Q04DX002 (ip), vehicle: saline with Tween-80) was 102 % of control.

As to `NC(=O)N/N=c1/oc2ccccc2cc1C(N)=O`, the T/C (dose: 100.0 mg/kg/injection, schedule: Q04DX002 (ip), vehicle: saline) was 98 % of control; the T/C (dose: 200.0 mg/kg/injection, schedule: Q04DX002 (ip), vehicle: saline) was 98 % of control; the T/C (dose: 400.0 mg/kg/injection, schedule: Q04DX002 (ip), vehicle: saline) was 96 % of control.

For the compound `Cc1c[n+]([O-])cc(=O)[nH]1`, the T/C was 100 % of control under setting [9]; 100 % of control under setting [8]; 100 % of control (dose: 400.0 mg/kg/injection, schedule: Q01DX009 (ip), vehicle: saline with Tween-80).

Turning to `CS/C(=C/c1ccc2ccccc2[n+]1C)N1CCCCC1`, the T/C (dose: 0.78 mg/kg/injection, schedule: Q01DX005 (ip), vehicle: saline with Tween-80) is 109 % of control and the T/C (dose: 1.56 mg/kg/injection, schedule: Q01DX005 (ip), vehicle: saline with Tween-80) is 116 % of control.

As for `C(=N\Nc1c2c(nc3ccccc13)CCCC2)/c1ccc2c(c1)OCO2`, the T/C is 109 % of control (dose: 3.12 mg/kg/injection, schedule: Q01DX005 (ip), vehicle: Klucel (hydroxypropylcellulose) (HPC)); 95 % of control (dose: 6.25 mg/kg/injection, schedule: Q01DX005 (ip), vehicle: Klucel (hydroxypropylcellulose) (HPC)); 90 % of control and 95 % of control (dose: 12.5 mg/kg/injection, schedule: Q01DX005 (ip), vehicle: Klucel (hydroxypropylcellulose) (HPC)).

As to `CCN(CC)C(=O)c1cc2c(=O)c3c(ccc4ccccc43)oc2n(C)c1=O`, the T/C runs as follows: under setting [10], 98 % of control; under setting [11], 90 % of control; (dose: 200.0 mg/kg/injection, schedule: Q01DX005 (ip), vehicle: saline with Tween-80) 90 % of control.

With `CSC(C(=O)c1ccccc1)c1ccccc1` (configuration not stated), the T/C is 87 % of control (dose: 25.0 mg/kg/injection, schedule: Q01DX009 (ip), vehicle: saline + alcohol); 96 % of control (dose: 50.0 mg/kg/injection, schedule: Q01DX009 (ip), vehicle: saline + alcohol); 112 % of control (dose: 100.0 mg/kg/injection, schedule: Q01DX009 (ip), vehicle: saline + alcohol).

In the case of `C=CC(=O)N1CCCC1C(=O)O` (configuration not stated), the T/C under setting [3] is 100 % of control; the T/C (dose: 100.0 mg/kg/injection, schedule: Q01DX009 (ip), vehicle: saline) was 109 % of control; the T/C (dose: 200.0 mg/kg/injection, schedule: Q01DX009 (ip), vehicle: saline) is 100 % of control.

In the case of `CN1C2CCC1CC(=NOS(=O)(=O)CC13CCC(CC1=O)C3)C2` (configuration not stated), the T/C (dose: 50.0 mg/kg/injection, schedule: Q01DX005 (ip), vehicle: saline) was 100 % of control; the T/C (dose: 100.0 mg/kg/injection, schedule: Q01DX005 (ip), vehicle: saline) is 103 % of control; the T/C (dose: 200.0 mg/kg/injection, schedule: Q01DX005 (ip), vehicle: saline) is 115 % of control.

Take `[N-]=[N+]=NC(=O)c1ccccn1`: the T/C was 101 % of control under setting [6], 113 % of control under setting [7] and 120 % of control under setting [9].

Turning to `Cc1cc(-c2ccc(N=Nc3c(C)nn(-c4ccc(S(=O)(=O)O)cc4)c3O)c(C)c2)ccc1N=Nc1ccc(O)c(C(=O)O)c1`, the T/C is 100 % of control under setting [4], 101 % of control under setting [5] and 93 % of control under setting [6].

Turning to `O=C(N=c1sc2ccccc2s1)N=c1sc2ccccc2s1`, the T/C by setting is: (dose: 30.0 mg/kg/injection, schedule: Q01DX005 (ip), vehicle: Klucel (hydroxypropylcellulose) (HPC)) 99 % of control; (dose: 60.0 mg/kg/injection, schedule: Q01DX005 (ip), vehicle: Klucel (hydroxypropylcellulose) (HPC)) 86 % of control and 91 % of control; (dose: 120.0 mg/kg/injection, schedule: Q01DX005 (ip), vehicle: Klucel (hydroxypropylcellulose) (HPC)) 95 % of control.

Turning to `COc1cc(C[C@H](CO)[C@@H](CO)Cc2ccc3c(c2)OCO3)cc(OC)c1OC`, the T/C is, setting by setting: (dose: 6.25 mg/kg/injection, schedule: Q04DX002 (ip), vehicle: saline with Tween-80) 95 % of control; (dose: 12.5 mg/kg/injection, schedule: Q04DX002 (ip), vehicle: saline with Tween-80) 102 % of control; (dose: 25.0 mg/kg/injection, schedule: Q04DX002 (ip), vehicle: saline with Tween-80) 106 % of control.

For the compound `CN1CNC(=O)c2n[nH]nc21`, the T/C (dose: 12.5 mg/kg/injection, schedule: Q04DX002 (ip), vehicle: Klucel (hydroxypropylcellulose) (HPC)) was 99 % of control; the T/C (dose: 25.0 mg/kg/injection, schedule: Q04DX002 (ip), vehicle: Klucel (hydroxypropylcellulose) (HPC)) is 108 % of control; the T/C (dose: 50.0 mg/kg/injection, schedule: Q04DX002 (ip), vehicle: Klucel (hydroxypropylcellulose) (HPC)) is 100 % of control and 102 % of control.
